The record followed here is US20100292205A1, “Pyrimidone Compounds As GSK-3 Inhibitors” (PFIZER INC., priority 2006, published 2010).

SMILES strings stand for the structures.

The target in one experiment is T1, Recombinant human GSK3β (Homo sapiens, UniProt P49841).
T1 construct: His-tag; made in house; host or cells: Sf9 insect cells / baculovirus
T1 sequence (P49841 whole entry): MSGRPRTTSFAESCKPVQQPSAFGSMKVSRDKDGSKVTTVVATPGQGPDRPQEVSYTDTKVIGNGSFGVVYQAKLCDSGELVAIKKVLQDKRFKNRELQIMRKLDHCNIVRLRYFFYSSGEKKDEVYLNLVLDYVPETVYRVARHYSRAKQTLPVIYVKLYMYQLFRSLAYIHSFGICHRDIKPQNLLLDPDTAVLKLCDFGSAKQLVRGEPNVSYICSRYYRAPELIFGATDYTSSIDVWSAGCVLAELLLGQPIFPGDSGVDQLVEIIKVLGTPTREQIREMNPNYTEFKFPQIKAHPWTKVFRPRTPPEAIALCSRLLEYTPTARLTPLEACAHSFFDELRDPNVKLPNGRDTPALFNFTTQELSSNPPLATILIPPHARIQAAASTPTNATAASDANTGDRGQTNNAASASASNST
Nature of the experiment: GSK-3β (Glycogen Synthase Kinase) cell free enzyme assay. Type of experiment: biochemical. The settings on record: 1 μM; Examples 157-199; read-out: Percent inhibition at 1 μM. The method in brief: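 This cell-free kinase assay measured [33P] transfer from [33P]ATP gamma phosphate into the biotinylated peptide bio-LC-S-R-H-S-S-P-H-Q-pS-E-D-E-E-E-OH. After 60 min at RT, reactions were stopped with 0.66 volume of PBS lacking Ca or Mg containing 12.5 mM EDTA, 0.25% Triton-X 100, 125 uM ATP and 6.2 mg/ml streptavidin SPA beads. Bead-bound radioactivity was counted as CPM on a Trilux scintillation counter.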
As usually defined, the inhibition is the relative decrease from the control value, in per cent. For `CN(c1nc(-c2ccncc2)cc(=O)n1C)[C@@H]1CC[C@H]2N(S(=O)(=O)c3ccccc3)CC[C@@]2(C)C1` [Example 183, 3-Methyl-2-{methyl[(3,aS5,R7,aR)-3a-methyl-1-(phenylsulfonyl)octahydro-1H-indol-5-yl]amino}-6-pyridin-4-ylpyrimidin-4(3H)-one], the inhibition at 1 µM came to 100%.

Consider `CN(c1nc(-c2ccncc2)cc(=O)n1C)C1CCCN(S(=O)(=O)Cc2ccccc2)CC1` (stereo not drawn) [Example 196, 2-{[1-(Benzylsulfonyl)azepan-4-yl](methyl)amino}-3-methyl-6-pyridin-4-ylpyrimidin-4(3H)-one], for which the inhibition at 1 µM stood at 94%.

`CCN(c1nc(-c2ccncc2)cc(=O)n1C)C1CCCN(S(=O)(=O)c2ccccc2)CC1` (stereo not drawn) [Example 186, 2-{Ethyl[1-(phenylsulfonyl)azepan-4-yl]amino}-3-methyl-6-pyridin-4-ylpyrimidin-4(3H)-one]: the inhibition at 1 µM worked out at 101%.

As for `Cn1c(NCC2CN(S(=O)(=O)c3ccccc3)C2)nc(-c2ccncc2)cc1=O` [Example 190, 3-Methyl-2-({[1-(phenylsulfonyl)azetidin-3-yl]methyl}amino)-6-pyridin-4-ylpyrimidin-4(3H)-one], the inhibition at 1 µM was 35%.

The experiment is the same for the next values; noted with them: 1 μM; Examples 201-221; read-out: Percent inhibition at 1 μM.
Regarding `COC(=O)N1CCC(CNc2nc(-c3ccncc3)cc(=O)n2C)C1` (stereo not drawn) [Example 221, Methyl 3-{[(1-methyl-6-oxo-4-pyridin-4-yl-16-dihydropyrimidin-2-yl)amino]methyl}pyrrolidine-1-carboxylate], the inhibition at 1 µM worked out at 71%.

Still in this experiment, the particulars now being: 1 μM; Examples 236-262; read-out: Percent inhibition at 1 μM.
Take `Cn1c(N2CC[C@@H]3CN(Cc4ccccc4)C[C@@H]32)nc(-c2ccncc2)cc1=O` [Example 251, 2-[(3a,R6,aR)-5-Benzylhexahydropyrro-lo[34-b]pyrrol-1(2H)-yl]-3-methyl-6-pyridin-4-ylpyrimidin-4(3H)-one]: the inhibition at 1 µM is 47%.

`CCN(c1nc(-c2ccncc2)cc(=O)n1C)C1CCN(C)CC1` [Example 248, 2-[Ethyl(1-methylpiperidin-4-yl)amino]-3-methyl-6-pyridin-4-ylpyrimidin-4(3H)-one]: the inhibition at 1 µM is 39%.

Regarding `Cn1c(NCC2CCN(Cc3ccccc3)C2)nc(-c2ccncc2)cc1=O` (stereo not drawn) [Example 261, 2-{[(1-Benzylpyrrolidin-3-yl)methyl]amino}-3-methyl-6-pyridin-4-ylpyrimidin-4(3H)-one], the inhibition at 1 µM amounted to 70%.

Staying with this experiment, now noted: 1 μM; GSK-3β cell free enzyme assay; Examples 42-60; read-out: Percent inhibition at 1 μM.
As for `CC(=O)N1C[C@@H]2[C@H](C1)[C@H]2Nc1nc(-c2ccncc2)cc(=O)n1C` [Example 49, 2-{[(1R,5S,6s)-3-Acetyl-3-azabicyclo[3.1.0]hex-6-yl]amino}-3-methyl-6-pyridin-4-ylpyrimidin-4(3H)-one], the inhibition at 1 µM is 75%.

Consider `CC(=O)N1CCCC(Nc2nc(-c3ccncc3)cc(=O)n2C)C1` (stereo not drawn) [Example 48, 2-[(1-Acetylpiperidin-3-yl)amino]-3-methyl-6-pyridin-4-ylpyrimidin-4(3H)-one], for which the inhibition at 1 µM was 55%.

As to `CC(=O)N1C[C@H](F)[C@H](Nc2nc(-c3ccncc3)cc(=O)n2C)C1` [Example 51, 2-{[(3R,4S)-1-Acetyl-4-fluoropyrrolidin-3-yl]amino}-3-methyl-6-pyridin-4-ylpyrimidin-4(3H)-one], the inhibition at 1 µM came to 78%.

Consider `CC(=O)N1CCC(CNc2nc(-c3ccncc3)cc(=O)n2C)C1` (stereo not drawn) [Example 59, 2-{[(1-Acetylpyrrolidin-3-yl)methyl]amino}-3-methyl-6-pyridin-4-ylpyrimidin-4(3H)-one], for which the inhibition at 1 µM came out at 37%.

Staying with this experiment, now noted: cell free enzyme assay; Examples 1-35.
For orientation: IC50 means the concentration that gives 50% inhibition. Regarding `Cn1c(NCC2CCCCN2C(=O)OC(C)(C)C)nc(-c2ccncc2)cc1=O` (stereo not drawn) [Example 35, tert-butyl 2-{[(1-Methyl-6-oxo-4-pyridin-4-yl-1,6-dihydropyrimidin-2-yl)amino]methyl} piperidine-1-carboxylate], the IC50 worked out at 0.168 µM.

Turning to `Cn1c(NC2(c3cccc(C(C)(C)C)c3)CCOCC2)nc(-c2ccncc2)cc1=O` [Example 27, 2-{[4-(3-tert-Butylphenyl)tetra-hydro-2H-pyran-4-yl]amino}-3-methyl-6-pyridin-4-ylpyrimidin-4(3H)-one], the IC50 came out at 0.012 µM.

As to `CN(c1nc(-c2ccncc2)cc(=O)n1C)[C@@H]1CC[C@H]2N(C(=O)OC(C)(C)C)CC[C@@]2(C)C1` [Example 31, tert-butyl (3aS,5R,7aR)-3a-Methyl-5-[methyl(1-methyl-6-oxo-4-pyridin-4-yl-1,6-dihydropyrimidin-2-yl)amino]octahydro-1H-indole-1-carboxylate], the IC50 amounted to 0.0301 µM.

Consider `Cn1c(N[C@H]2[C@@H]3CN(C(=O)OC(C)(C)C)C[C@@H]32)nc(-c2ccncc2)cc1=O` [Example 6, tert-butyl (1R,5S,6s)-6-[(1-Methyl-6-oxo-4-pyridin-4-yl-1,6-dihydropyrimidin-2-yl)amino]-3-azabicyclo[3.1.0] hexane-3-carboxylate], for which the IC50 turned out to be 0.0028 µM.

Staying with this experiment, now noted: cell free enzyme assay; Examples 62-155.
`CCCC(C)C(=O)N1C[C@@H]2[C@H](C1)[C@H]2N(C)c1nc(-c2ccncc2F)cc(=O)n1C` (stereo partly drawn) [Example 100, 6-(3-Fluoropyridin-4-yl)-3-methyl-2-{methyl[(1R,5S,6s)-3-(2-methylpentanoyl)-3-azabicyclo[3.1.0]hex-6-yl]amino}pyrimidin-4(3H)-one]: the IC50 turned out to be 0.00902 µM.

With `CN(c1nc(-c2ccncc2F)cc(=O)n1C)[C@H]1[C@@H]2CN(C(=O)Cc3ccccc3)C[C@@H]21` [Example 115, 6-(3-Fluoropyridin-4-yl)-3-methyl-2-{methyl[(1R,5S,6s)-3-(phenylacetyl)-3-azabicyclo[3.1.0]hex-6-yl]amino}pyrimidin-4(3H)-one], the half-maximal inhibitory concentration (IC50) is 0.0142 µM.

Turning to `Cn1c(NC2CCN(C(=O)c3ccccc3)C2)nc(-c2ccncc2)cc1=O` (stereo not drawn) [Example 62, 2-[(1-Benzoylpyrrolidin-3-yl)amino]-3-methyl-6-pyridin-4-ylpyrimidin-4(3H)-one], the IC50 amounted to 0.0775 µM.

Take `CN(c1nc(-c2ccncc2F)cc(=O)n1C)[C@H]1[C@@H]2CN(C(=O)c3c(F)cc(F)cc3F)C[C@@H]21` [Example 117, 6-(3-Fluoropyridin-4-yl)-3-methyl-2-{methyl[(1R,5S,6s)-3-(2,4,6-trifluorobenzoyl)-3-azabicyclo[3.1.0]hex-6-yl]amino}pyrimidin-4(3H)-one]: the IC50 is 0.00184 µM.

As to `CN(c1nc(-c2ccncc2F)cc(=O)n1C)[C@H]1[C@@H]2CN(C(=O)c3cccc(F)c3F)C[C@@H]21` [Example 137, 2-{[(1R,5S,6s)-3-(2,3-Difluorobenzoyl)-3-azabicyclo[3.1.0]hex-6-yl](methyl)amino}-6-(3-fluoropyridin-4-yl)-3-methylpyrimidin-4(3H)-one], the IC50 is 0.00329 µM.

In the case of `Cc1cccc(C(=O)N2C[C@@H]3[C@H](C2)[C@H]3N(C)c2nc(-c3ccncc3F)cc(=O)n2C)c1` [Example 132, 6-(3-Fluoropyridin-4-yl)-3-methyl-2-{methyl[(1R,5S,6s)-3-(3-methylbenzoyl)-3-azabicyclo[3.1.0]hex-6-yl]amino}pyrimidin-4(3H)-one], the concentration for half-maximal inhibition (IC50) was found to be 0.00105 µM.

`CCC(C)C(=O)N1C[C@@H]2[C@H](C1)[C@H]2N(C)c1nc(-c2ccncc2F)cc(=O)n1C` (stereo partly drawn) [Example 103, 6-(3-Fluoropyridin-4-yl)-3-methyl-2-{methyl[(1R,5S,6s)-3-(2-methylbutanoyl)-3-azabicyclo[3.1.0]hex-6-yl]amino}pyrimidin-4(3H)-one]: the IC50 was 0.00277 µM.

In the case of `CC(C)C(=O)N1C[C@@H]2[C@H](C1)[C@H]2N(C)c1nc(-c2ccncc2F)cc(=O)n1C` [Example 114, 6-(3-Fluoropyridin-4-yl)-2-{[(1R,5S,6s)-3-isobutyryl-3-azabicyclo[3.1.0]hex-6-yl](methyl)amino}-3-methylpyrimidin-4(3H)-one], the 50% inhibitory concentration (IC50) turned out to be 0.0153 µM.

In the case of `Cn1c(NC[C@H]2CCCN2C(=O)c2ccccc2)nc(-c2ccncc2)cc1=O` [Example 78, 2-({[(2R)-1-Benzoylpyrrolidin-2-yl]methyl}amino)-3-methyl-6-pyridin-4-ylpyrimidin-4(3H)-one], the half-inhibitory concentration (IC50) came to 0.277 µM.

Consider `CCN(c1nc(-c2ccncc2)cc(=O)n1C)C1CCCN(C(=O)Cc2ccccc2)C1` (stereo not drawn) [Example 91, 2-{Ethyl[1-(phenylacetyl)piperidin-3-yl]amino}-3-methyl-6-pyridin-4-ylpyrimidin-4(3H)-one], for which the IC50 is 0.147 µM.

Still in this experiment, the particulars now being: cell free enzyme assay; Examples 222-234.
`CCOC(=O)N1CCCC(N(C)c2nc(-c3ccncn3)cc(=O)n2C)C1` (stereo not drawn) [Example 222, Ethyl 3-[methyl(1-methyl-6-oxo-1,6-dihydro-4,4′-bipyrimidin-2-yl)amino]piperidine-1-carboxylate]: the 50% inhibitory concentration (IC50) is 0.00114 µM.

Consider `COC(=O)N1CCC[C@@H](Nc2nc(-c3ccncc3)cc(=O)n2C)C1` [Example 232, Methyl (3R)-3-[(1-methyl-6-oxo-4-pyridin-4-yl-1,6-dihydropyrimidin-2-yl)amino]piperidine-1-carboxylate], for which the IC50 came to 0.000854 µM.

Still in this experiment, the particulars now being: cell free enzyme assay; Examples 265-291.
In the case of `CN(c1nc(-c2ccncc2F)cc(=O)n1C)[C@H]1[C@@H]2CN(c3nnnn3CC3CC3)C[C@@H]21` [Example 280, 2-[{(1R,5S,6s)-3-[1-(Cyclopropylmethyl)-1H-tetrazol-5-yl]-3-azabicyclo[3.1.0]hex-6-yl}(methyl)amino]-6-(3-fluoropyridin-4-yl)-3-methylpyrimidin-4(3H)-one], the IC50 came out at 0.00448 µM.

For the compound `CN(c1nc(-c2ccncc2F)cc(=O)n1C)[C@H]1[C@@H]2CN(c3nc4cc(C(F)(F)F)ccc4[nH]3)C[C@@H]21` [Example 281, 6-(3-Fluoropyridin-4-yl)-3-methyl-2-(methyl{(1R,5S,6s)-3-[5-(trifluoromethyl)-1H-benzimidazol-2-yl]-3-azabicyclo[3.1.0]hex-6-yl}amino)pyrimidin-4(3H)-one], the IC50 was 0.0363 µM.
